Assays:
human NTCP = biological target: T1, human NTCP (Homo sapiens, UniProt Q14973); assay: Uptake in NTCP-transfected HEK293 cells; settings: 5 µM; 10 min; 37°C; vs mock cells
T1 sequence (Q14973 1-349): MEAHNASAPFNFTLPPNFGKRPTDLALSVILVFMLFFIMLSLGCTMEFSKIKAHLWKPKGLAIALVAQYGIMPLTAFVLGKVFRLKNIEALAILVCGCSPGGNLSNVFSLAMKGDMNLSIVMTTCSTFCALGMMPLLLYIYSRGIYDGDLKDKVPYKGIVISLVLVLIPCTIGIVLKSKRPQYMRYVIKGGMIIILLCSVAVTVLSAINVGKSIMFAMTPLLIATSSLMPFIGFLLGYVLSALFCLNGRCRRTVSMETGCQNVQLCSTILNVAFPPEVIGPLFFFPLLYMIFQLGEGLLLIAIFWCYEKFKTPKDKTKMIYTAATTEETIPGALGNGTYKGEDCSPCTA
Protocol: (§1) OATP1B1-, OATP1B3-, OATP2B1-, NTCP-, OAT1-, and OAT3-transfected HEK293 cells were cultured in DMEM supplemented with 10% FBS, 100 U/mL penicillin-streptomycin at 37°C with 95% relative humidity atmosphere containing 5% CO2. All cells were seeded in 24-well plates at a density of 4 × 10^5 cells/well and cultured for 1–2 days until they reached 80%–90% confluence. Prior to the initiation of uptake studies, the cells were washed twice with HBSS buffer at 37°C. Membrane vesicles were stored at −80°C and thawed at 37°C prior to the initiation of the studies.
(§2) All uptake tests were performed in triplicates. The activities of transporter-transfected HEK293 cells were evaluated using relevant positive substrates and inhibitors. E17G (5 µM, OATP1B1 and OATP1B3), ES (2 µM, OATP2B1), ES (5 µM, OAT3), TCA (10 µM, NTCP), and PAH (20 µM, OAT1) were used as substrates of the transporters. The inhibitors for each transporter were rifampicin (200 µM, OATP1B1 and OATP1B3), erlotinib (10 µM, OATP2B1), CsA (20 µM, NTCP), and probenecid (200 µM, OAT1 and OAT3).
(§3) The cells were washed three times with ice-cold HBSS buffer. […] The total protein concentration was measured using a BCA Protein Assay Kit. The uptake rates of HEK293-OATP1B1, HEK293-OATP1B3, HEK293-OATP2B1, HEK293-NTCP, HEK293-OAT1, HEK293-OAT3, and mock cells were calculated. […]

OCT3 = tested on: OCT3; design: method as in PMID 27645247, PMID 26976869, PMID 27550354; settings: cited from earlier work
MAT1 = tested on: MAT1; design: method as in PMID 27645247, PMID 26976869, PMID 27550354; settings: cited from earlier work
[1] = rats; cited from earlier work
OATP2B1 = settings: cited from earlier work
human OATP2B1 = biological target: T2, human OATP2B1 (Homo sapiens, UniProt O94956); assay: Uptake in OATP2B1-transfected HEK293 cells; settings: 5 µM; 10 min; 37°C; vs mock cells
T2 sequence (O94956 1-709): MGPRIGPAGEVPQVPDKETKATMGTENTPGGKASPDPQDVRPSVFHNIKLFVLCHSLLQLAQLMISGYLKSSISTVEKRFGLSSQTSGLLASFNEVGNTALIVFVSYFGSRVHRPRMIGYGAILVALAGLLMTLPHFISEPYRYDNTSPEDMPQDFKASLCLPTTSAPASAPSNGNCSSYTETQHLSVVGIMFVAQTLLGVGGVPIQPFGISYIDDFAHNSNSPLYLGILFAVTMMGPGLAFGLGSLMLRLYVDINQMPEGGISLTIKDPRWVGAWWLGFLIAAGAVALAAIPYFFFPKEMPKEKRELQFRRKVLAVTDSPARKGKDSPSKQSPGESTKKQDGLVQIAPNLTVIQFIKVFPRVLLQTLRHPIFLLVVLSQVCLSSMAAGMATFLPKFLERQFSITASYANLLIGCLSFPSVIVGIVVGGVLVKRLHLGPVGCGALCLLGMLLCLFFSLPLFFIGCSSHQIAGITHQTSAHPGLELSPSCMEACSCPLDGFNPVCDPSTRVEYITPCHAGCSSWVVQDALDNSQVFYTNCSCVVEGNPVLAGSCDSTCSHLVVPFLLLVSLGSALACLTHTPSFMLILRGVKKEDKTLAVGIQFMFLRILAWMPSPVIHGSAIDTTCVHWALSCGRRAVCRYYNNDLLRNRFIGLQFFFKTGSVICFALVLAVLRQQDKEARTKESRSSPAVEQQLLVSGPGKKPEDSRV
Protocol: as §1, §2, §3

MATE2-K [2] = settings: cited from earlier work
MATE2-K [3] = settings: cited from earlier work; remark: listed apart in the source

Which “substrate for NTCP” value (human NTCP) does the source give for `CC(=O)NC[C@H]1CN(c2ccc(N3CCOCC3)c(F)c2)C(=O)O1` [Linezolid] here?
Its value is “not a substrate”.

What about the “inhibitor of OCT3” value (OCT3) of the same compound?
Its value is “not an inhibitor”.

What about the “inhibitor of MAT1” value (MAT1) of the same compound?
Its value is “not an inhibitor”.

And the “mean recovery of linezolid radioactivity in excreta” value [1]?
The value was “over 95%”.

What about the “inhibitor of OATP2B1” value (OATP2B1) of the same compound?
Its value is “inhibitor”.

What about the “substrate for OATP2B1” value (human OATP2B1) of the same compound?
The value was “not a substrate”.

What about the “substrate for MATE2-K” value (MATE2-K [2]) of the same compound?
Its value is “not a substrate”.

What about the “inhibitor of MATE2-K” value (MATE2-K [3]) of the same compound?
Its value is “not an inhibitor”.
